Measured values reported in PMC5936891, “A focused library synthesis and cytotoxicity of quinones derived from the natural product bolinaquinone” (Royal Society Open Science, 2018).

Key:
HT29 (colon carcinoma) = test: MTT in vitro growth inhibition assay, HT29; assay type: cell-based; conditions: Homo sapiens; for inhibition at 25 µM: HT-29, 25 µM of drug, 72 h, read-out: Percentage of Cell Growth Inhibition HT29; for GI50: HT-29, 72 h drug exposure
From the text: (§1) With the desired bolinaquinone analogues 12–43 in hand, we examined their cytotoxicity against a panel of 11 tumour cell lines: HT29 (colon carcinoma), U87 and SJ-G2 (glioblastoma), MCF-7 (breast carcinoma), A2780 (ovarian carcinoma), H460 (lung carcinoma), A431 (skin carcinoma), Du145 (prostate carcinoma), BE2-C (neuroblastoma), MIA (pancreatic carcinoma), SMA (spontaneous murine astrocytoma) and a normal breast cell line (MCF10A). The inclusion of the MCF-10A cell line allowed a determination of a crude measure of relative toxicity while noting that the ultimate arbiter of toxicity requires in vivo evaluation. All analogues were initially screened at a 25 µM drug concentration.
(§2) Stock solutions were prepared as follows and stored at −20°C: drugs were stored as 40 mM solutions in DMSO. All cell lines were cultured in a humidified atmosphere 5% CO2 at 37°C. The cancer cell lines were maintained in Dulbecco's modified Eagle's medium (DMEM) (Trace Biosciences, Australia) supplemented with 10% fetal bovine serum, 10 mM sodium bicarbonate, penicillin (100 IU ml^−1), streptomycin (100 µg ml^−1) and glutamine (4 mM). The non-cancer MCF10A cell line was cultured in DMEM:F12 (1 : 1) cell culture media, 5% heat-inactivated horse serum, supplemented with penicillin (50 IU ml^−1), streptomycin (50 µg ml^−1), 20 mM Hepes, L-glutamine (2 mM), epidermal growth factor (20 ng ml^−1), hydrocortisone (500 ng ml^−1), cholera toxin (100 ng ml^−1) and insulin (10 ug ml^−1).
(§3) Cells in logarithmic growth were transferred to 96-well plates. Cytotoxicity was determined by plating cells in duplicate in 100 µl medium at a density of 2500–4000 cells per well. On day 0 (24 h after plating), when the cells were in logarithmic growth, 100 μl of medium with or without the test agent was added to each well. After 72 h, drug exposure growth inhibitory effects were evaluated using the MTT (3-[4,5-dimethylthiazol-2-yl]-2,5-diphenyl-tetrazolium bromide) assay and the absorbance read at 540 nm. Percentage growth inhibition was determined at a fixed drug concentration of 25 µM. A value of 100% is indicative of complete cell growth inhibition. Those analogues showing appreciable percentage growth inhibition underwent further dose–response analysis allowing for the calculation of a GI50 value. This value is the drug concentration at which cell growth is 50% inhibited based on the difference between the optical density values on day 0 and those at the end of drug exposure.

U87 (glioblastoma) = test: MTT in vitro growth inhibition assay, U87; assay type: cell-based; conditions: for inhibition at 25 µM: 25 µM of drug, 72 h, read-out: Percentage of Cell Growth Inhibition U87; for GI50: 72 h drug exposure
From the text: as §1, §2, §3

MCF-7 (breast carcinoma) = test: MTT in vitro growth inhibition assay, MCF-7; assay type: cell-based; conditions: Homo sapiens; for inhibition at 25 µM: MCF7, 25 µM of drug, 72 h, read-out: Percentage of Cell Growth Inhibition MCF-7; for GI50: MCF7, 72 h drug exposure
From the text: as §1, §2, §3

[1] = system: A2780 (ovarian carcinoma); test: MTT in vitro growth inhibition assay, A2780; assay type: cell-based; conditions: Homo sapiens; for inhibition at 25 µM: 25 µM of drug, 72 h, read-out: Percentage of Cell Growth Inhibition A2780; for GI50: 72 h drug exposure
From the text: as §1, §2, §3

H460 (lung carcinoma) = test: MTT in vitro growth inhibition assay, H460; assay type: cell-based; conditions: Homo sapiens; for inhibition at 25 µM: NCI-H460, 25 µM of drug, 72 h, read-out: Percentage of Cell Growth Inhibition H460; for GI50: NCI-H460, 72 h drug exposure
From the text: as §1, §2, §3

A431 (skin carcinoma) = test: MTT in vitro growth inhibition assay, A431; assay type: cell-based; conditions: Homo sapiens; for inhibition at 25 µM: A-431, 25 µM of drug, 72 h, read-out: Percentage of Cell Growth Inhibition A431; for GI50: A-431, 72 h, 72 h drug exposure
From the text: as §1, §2, §3

[2] = system: Du145 (prostate carcinoma); test: MTT in vitro growth inhibition assay, Du145; assay type: cell-based; conditions: Homo sapiens; for inhibition at 25 µM: DU-145, 25 µM of drug, 72 h, read-out: Percentage of Cell Growth Inhibition Du145; for GI50: DU-145, 72 h, 72 h drug exposure
From the text: as §1, §2, §3

BE2-C (neuroblastoma) = test: MTT in vitro growth inhibition assay, BE2-C; assay type: cell-based; conditions: Homo sapiens, BE(2)-C, 72 h; for inhibition at 25 µM: 25 µM of drug, read-out: Percentage of Cell Growth Inhibition BE2-C; for GI50: 72 h drug exposure
From the text: as §1, §2, §3

SJ-G2 (glioblastoma) = test: MTT in vitro growth inhibition assay, SJ-G2; assay type: cell-based; conditions: for inhibition at 25 µM: 25 µM of drug, 72 h, read-out: Percentage of Cell Growth Inhibition SJ-G2; for GI50: 72 h drug exposure
From the text: as §1, §2, §3

[3] = system: MIA (pancreatic carcinoma); test: MTT in vitro growth inhibition assay, MIA; assay type: cell-based; conditions: for inhibition at 25 µM: 25 µM of drug, 72 h, read-out: Percentage of Cell Growth Inhibition MIA; for GI50: 72 h drug exposure
From the text: as §1, §2, §3

[4] = system: SMA (spontaneous murine astrocytoma); test: MTT in vitro growth inhibition assay, SMA; assay type: cell-based; conditions: Mus musculus; for inhibition at 25 µM: 25 µM of drug, 72 h, read-out: Percentage of Cell Growth Inhibition SMA; for GI50: 72 h drug exposure
From the text: as §1, §2, §3

[5] = system: MCF10A (normal breast cell line); test: MTT in vitro growth inhibition assay, MCF10A; assay type: cell-based; conditions: Homo sapiens, MCF-10A; for inhibition at 25 µM: 25 µM of drug, 72 h, read-out: Percentage of Cell Growth Inhibition MCF10A; for GI50: normal breast cell line, 72 h drug exposure
From the text: as §1, §2, §3

Row | Structure (SMILES) | inhibition at 25 µM (HT29 (colon carcinoma)) [%] | GI50 (HT29 (colon carcinoma)) [µM] | inhibition at 25 µM (U87 (glioblastoma)) [%] | GI50 (U87 (glioblastoma)) [µM] | inhibition at 25 µM (MCF-7 (breast carcinoma)) [%] | GI50 (MCF-7 (breast carcinoma)) [µM] | inhibition at 25 µM [1] [%] | GI50 [1] [µM] | inhibition at 25 µM (H460 (lung carcinoma)) [%] | GI50 (H460 (lung carcinoma)) [µM] | inhibition at 25 µM (A431 (skin carcinoma)) [%] | GI50 (A431 (skin carcinoma)) [µM] | inhibition at 25 µM [2] [%] | GI50 [2] [µM] | inhibition at 25 µM (BE2-C (neuroblastoma)) [%] | inhibition at 25 µM (SJ-G2 (glioblastoma)) [%] | inhibition at 25 µM [3] [%] | inhibition at 25 µM [4] [%] | inhibition at 25 µM [5] [%] | melting point [°C] | other results
1 | CCCCc1ccc(C2=C(OC)C(=O)C(c3ccc4ccccc4c3)=C(OC)C2=O)cc1 [compound 35, 2-(4-Butylphenyl)-3,6-dimethoxy-5-(naphthalene-3-yl)cyclohexa-2,5-diene-1,4-dione] | 59 ± 3 | 21 ± 2.6 | 38 ± 2 | 42 ± 2.8 | 87 ± 1 | 10 ± 0.6 | 66 ± 1 | 14 ± 2 | 61 ± 3 | 19 ± 0.6 | 49 ± 3 | 26 ± 4.8 | 56 ± 2 | 19 ± 1 | 61 ± 2 | 67 ± 4 | 61 ± 2 | 79 ± 5 | 47 ± 5 | 134 to 136 | GI50 (BE2-C (neuroblastoma)): 23 ± 3.2 µM; GI50 (SJ-G2 (glioblastoma)): 16 ± 2.2 µM; GI50 [3]: 18 ± 1.2 µM; GI50 [4]: 8.2 ± 0.8 µM; GI50 [5]: 26 ± 4.8 µM
2 | COC1=C(c2ccc3ccccc3c2)C(=O)C(OC)=C(c2ccccc2-c2ccccc2)C1=O [compound 36, 2,5-Dimethoxy-3-(biaryl-2-yl)-6-(naphthalene-3-yl)cyclohexa-2,5-diene-1,4-dione] | > 100 | 11 ± 0.9 | 57 ± 2 | 20 ± 0.9 | > 100 | 5.1 ± 0.5 | 87 ± 2 | 9 ± 0.6 | 65 ± 3 | 18 ± 2.3 | 78 ± 2 | 15 ± 1.5 | 51 ± 3 | 21 ± 0.2 | > 100 | 78 ± 5 | 78 ± 2 | 84 ± 7 | 77 ± 4 | 113 to 115 | GI50 (BE2-C (neuroblastoma)): 8.7 ± 0.7 µM; GI50 (SJ-G2 (glioblastoma)): 13 ± 1.5 µM; GI50 [3]: 12 ± 0.7 µM; GI50 [4]: 10 ± 0.3 µM; GI50 [5]: 15 ± 2.2 µM
3 | COC1=C(c2cccc(-c3ccccc3)c2)C(=O)C(OC)=C(c2ccc3ccccc3c2)C1=O [compound 37, 2,5-Dimethoxy-3-(biaryl-3-yl)-6-(naphthalene-3-yl)cyclohexa-2,5-diene-1,4-dione] | > 100 | 5.4 ± 0.4 | 74 ± 3 | 14 ± 1 | 88 ± 4 | 10 ± 2.6 | 76 ± 3 | 11 ± 0.9 | 95 ± 1 | 11 ± 0.3 | > 100 | 6 ± 0.9 | > 100 | 9.8 ± 0.7 | > 100 | > 100 | 91 ± 2 | 85 ± 3 | > 100 | 119 to 121 | GI50 (BE2-C (neuroblastoma)): 6.7 ± 0.3 µM; GI50 (SJ-G2 (glioblastoma)): 9.3 ± 1.2 µM; GI50 [3]: 8.3 ± 1 µM; GI50 [4]: 13 ± 1 µM; GI50 [5]: 11 ± 1.3 µM
4 | CCCNC1=CC(=O)C(NCCC)=C(c2ccc(C)cc2)C1=O [compound 38, 2,5-Bis(propylamino)3-p-tolylcyclohexa-2,5-diene-1,4-dione] | 59 ± 4 |  | 67 ± 5 |  | 57 ± 3 |  | 63 ± 4 |  | 51 ± 2 |  | 81 ± 0.3 |  | 56 ± 2 |  | 28 ± 12 | 50 ± 2 | 67 ± 3 | 73 ± 1 | 69 ± 3 | 166 to 168 | 
5 | CCCNC1=CC(=O)C(NCCC)=C(c2cccc3ccccc23)C1=O [compound 39, 3-(Naphthalene-1-yl)-2,5-bis-(propylamino)cyclohexa-2,5-diene-1,4-dione] | 76 ± 2 |  | 75 ± 1 |  | 69 ± 1 |  | 78 ± 2 |  | 59 ± 3 |  | 76 ± 3 |  | 75 ± 1 |  | 73 ± 3 | 59 ± 1 | 69 ± 2 | 54 ± 11 | 78 ± 1 | 134 to 137 | 
6 | CCCNC1=C(c2ccccc2)C(=O)C(NCCC)=C(c2cccc3ccccc23)C1=O [compound 42, 2-(Naphthalene-1-yl)-5-phenyl-3,6-bis-(propylamino)cyclohexa-2,5-diene-1,4-dione] | 71 ± 3 |  | 69 ± 4 |  | 77 ± 4 |  | 79 ± 1 |  | 63 ± 3 |  | 81 ± 1 |  | 70 ± 3 |  | 56 ± 4 | 52 ± 1 | 76 ± 2 | 56 ± 9 | 76 ± 1 | 226 to 228 | 
